Test results published in ChEMBL document CHEMBL1201862, “PubChem BioAssay data set” (2004).
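Dose response: 5 concentrations. Exposure: 48 h. Format: 96-well plates. Endpoint: linear interpolation; highest concentration if not reached. Abbreviation: GI50, concentration required for 50% inhibition of growth.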 Active and inactive are the calls of the source. No stated cut-off is given here; in the data, active = GI50 up to about 1.1 µM and inactive = higher.

Legend:
Assay in all cases: NCI-60 cell line screen, 48 h
DU-145 = test system: DU-145
EKVX = test system: EKVX
HCT-116 = test system: HCT-116
HL-60 = test system: HL-60
HOP-62 = test system: HOP-62
HT-29 = test system: HT-29
M14 = test system: M14
MCF7 = test system: MCF7
MDA-MB-435 = test system: MDA-MB-435
NCI-H23 = test system: NCI-H23
OVCAR-4 = test system: OVCAR-4
RPMI-8226 = test system: RPMI-8226
SK-OV-3 = test system: SK-OV-3
U-251 = test system: U-251
UACC-257 = test system: UACC-257
UO-31 = test system: UO-31
OVCAR-3 = test system: OVCAR-3
BT-549 = test system: BT-549

Measured: GI50

C=CCC(C)C12CCNC(Cc3ccc(O)cc31)C2C (stereo unspecified)
inactive: DU-145 > 100 µM | EKVX > 100 µM | HCT-116 > 100 µM | HL-60 > 10 µM | HOP-62 > 100 µM | HT-29 79.1 µM | M14 64.4 µM | MCF7 > 100 µM | MDA-MB-435 > 100 µM | NCI-H23 > 100 µM | OVCAR-4 > 100 µM | RPMI-8226 > 100 µM | SK-OV-3 > 100 µM | U-251 > 100 µM | UACC-257 66.2 µM | UO-31 38.6 µM

NNC(=O)N/N=C(/CC1(O)C(=O)Nc2ccc(Br)cc21)c1ccccc1 (stereo unspecified)
inactive: EKVX 22.7 µM | HCT-116 27.9 µM | HL-60 21.9 µM | HT-29 30.6 µM | M14 37.6 µM | NCI-H23 29 µM | OVCAR-3 41.8 µM | RPMI-8226 48.4 µM | SK-OV-3 40.2 µM | U-251 > 10 µM | UACC-257 77.3 µM | UO-31 12.5 µM

Cc1nc2ccccc2nc1CC(=O)C(=O)Nc1ccc(Cl)cc1Cl
inactive: EKVX > 100 µM | HCT-116 > 100 µM | HL-60 > 100 µM | HOP-62 > 100 µM | M14 > 100 µM | NCI-H23 > 100 µM | OVCAR-3 > 100 µM | OVCAR-4 > 100 µM | RPMI-8226 > 100 µM | SK-OV-3 > 100 µM | U-251 > 100 µM | UACC-257 > 100 µM | UO-31 > 100 µM

c1ccc(-c2ccc(/N=N/N3CCCC3)cc2)cc1
inactive: BT-549 > 100 µM | DU-145 > 100 µM | EKVX > 100 µM | HCT-116 > 100 µM | HOP-62 > 100 µM | M14 > 100 µM | MCF7 > 100 µM | MDA-MB-435 > 100 µM | NCI-H23 > 100 µM | OVCAR-3 > 100 µM | OVCAR-4 > 100 µM | RPMI-8226 22.8 µM | SK-OV-3 > 100 µM | U-251 > 100 µM | UACC-257 > 100 µM | UO-31 > 100 µM

COc1cc2c(cc1OC)CC(=O)c1cc(OC)c(OC)cc1/C=C\2
inactive: DU-145 > 12.5 µM | EKVX > 12.5 µM | HCT-116 > 12.5 µM | HL-60 2.24 µM | HOP-62 > 12.5 µM | HT-29 5.79 µM | M14 9.57 µM | MCF7 > 12.5 µM | MDA-MB-435 3.92 µM | NCI-H23 > 12.5 µM | OVCAR-3 > 12.5 µM | OVCAR-4 > 12.5 µM | RPMI-8226 > 12.5 µM | SK-OV-3 > 12.5 µM | U-251 > 12.5 µM | UACC-257 > 12.5 µM | UO-31 > 12.5 µM

N#CC1=C(N)OC(c2cccc([N+](=O)[O-])c2)C1(C#N)C#N (stereo unspecified)
inactive: DU-145 17.3 µM | EKVX 22.1 µM | HCT-116 15.2 µM | HL-60 11.9 µM | HOP-62 18.9 µM | HT-29 19.1 µM | M14 25.8 µM | MCF7 20.8 µM | MDA-MB-435 23.3 µM | NCI-H23 21.2 µM | RPMI-8226 18.3 µM | SK-OV-3 70.3 µM | U-251 39.9 µM | UACC-257 17 µM | UO-31 17.9 µM

COc1ccc(CCCNC(=O)Cc2ccccc2CO)cc1OC
inactive: BT-549 > 100 µM | DU-145 > 100 µM | EKVX > 100 µM | HCT-116 > 100 µM | HL-60 > 100 µM | HOP-62 > 100 µM | HT-29 > 100 µM | M14 > 100 µM | MDA-MB-435 > 100 µM | NCI-H23 > 100 µM | OVCAR-3 > 100 µM | OVCAR-4 > 100 µM | U-251 > 100 µM | UACC-257 > 100 µM | UO-31 > 100 µM

[N-]=[N+]=Nc1c(N2CCOCC2)c(Cl)nc2ccccc12
inactive: BT-549 25.4 µM | EKVX 9.55 µM | HCT-116 39.5 µM | HL-60 66.1 µM | HOP-62 58.6 µM | HT-29 27.2 µM | M14 37.4 µM | MDA-MB-435 42.5 µM | NCI-H23 30.7 µM | OVCAR-3 43.5 µM | OVCAR-4 33.7 µM | RPMI-8226 74 µM | SK-OV-3 > 100 µM | U-251 82.6 µM | UACC-257 27.9 µM | UO-31 33.6 µM

Cc1cc(O)c(C(O)c2ccccn2)cc1O (stereo unspecified)
inactive: DU-145 37.9 µM | EKVX 18.2 µM | HCT-116 16.7 µM | HL-60 11.1 µM | HOP-62 89.1 µM | HT-29 21.4 µM | M14 20.2 µM | MCF7 18.1 µM | MDA-MB-435 18.7 µM | NCI-H23 18 µM | OVCAR-3 15 µM | RPMI-8226 20.4 µM | U-251 36.7 µM | UACC-257 > 10 µM | UO-31 19.1 µM

O=C1/C(=C/c2ccco2)N=C2Sc3c([nH]cnc3=O)N12
inactive: DU-145 > 100 µM | EKVX > 100 µM | HCT-116 > 100 µM | HL-60 > 100 µM | HOP-62 > 100 µM | HT-29 > 100 µM | M14 > 100 µM | MCF7 > 100 µM | MDA-MB-435 > 100 µM | NCI-H23 > 100 µM | OVCAR-3 > 100 µM | OVCAR-4 44.4 µM | RPMI-8226 > 100 µM | SK-OV-3 > 100 µM | U-251 > 100 µM | UACC-257 > 100 µM | UO-31 > 100 µM

CC(O)c1c2c(cc3c1CC1(C3)Cc3cc4c(c(C(C)O)c3C1)CCC4)CCC2 (stereo unspecified)
inactive: EKVX 27.9 µM | HCT-116 12.1 µM | HL-60 4.76 µM | HOP-62 20.7 µM | HT-29 12.9 µM | M14 18.6 µM | MCF7 11.8 µM | MDA-MB-435 15.8 µM | NCI-H23 15.5 µM | OVCAR-3 12.4 µM | OVCAR-4 2.86 µM | RPMI-8226 12.6 µM | SK-OV-3 23.2 µM | U-251 14.1 µM | UACC-257 13.9 µM | UO-31 1.69 µM

COc1cc2c(cc1NC(=O)c1ccccc1)c1c(n2S(=O)(=O)c2ccccc2)CCN(S(=O)(=O)c2ccccc2)C1
inactive: BT-549 > 100 µM | DU-145 > 100 µM | HCT-116 > 100 µM | HL-60 > 100 µM | HOP-62 > 100 µM | HT-29 > 100 µM | M14 > 100 µM | MDA-MB-435 > 100 µM | NCI-H23 > 100 µM | OVCAR-3 > 100 µM | OVCAR-4 > 100 µM | RPMI-8226 > 100 µM | SK-OV-3 > 100 µM | U-251 > 100 µM | UACC-257 > 100 µM

CCOc1ccc(N/C(=C(/C(Cl)=C(/Cl)N2CCCCC2)[N+](=O)[O-])n2nnc3ccccc32)cc1
inactive: BT-549 17.7 µM | DU-145 19.2 µM | EKVX 19.3 µM | HCT-116 16.7 µM | HOP-62 21.4 µM | M14 14.9 µM | MCF7 16.9 µM | MDA-MB-435 8.49 µM | NCI-H23 15.3 µM | OVCAR-3 17.4 µM | RPMI-8226 14.7 µM | SK-OV-3 28.9 µM | U-251 15.6 µM | UACC-257 16.9 µM | UO-31 2 µM

COc1ccccc1N1C(=O)/C(=C\c2cc(OC)c(OC)c(OC)c2)S(=O)(=O)C1c1ccccc1 (stereo unspecified)
inactive: BT-549 30.5 µM | DU-145 62.1 µM | HCT-116 23.8 µM | HOP-62 37.7 µM | M14 31 µM | MCF7 27.4 µM | MDA-MB-435 16 µM | NCI-H23 33.9 µM | OVCAR-3 18.2 µM | OVCAR-4 39.9 µM | RPMI-8226 20.5 µM | SK-OV-3 20.6 µM | U-251 18.6 µM | UACC-257 70.1 µM | UO-31 36.5 µM

CC(=O)/N=C1/N(/C=C2\C(=O)Oc3ccccc3C2=O)C(=O)/C(=C/c2ccccc2Cl)N1C
inactive: DU-145 > 100 µM | EKVX 84.9 µM | HCT-116 > 100 µM | HL-60 > 100 µM | HOP-62 > 100 µM | HT-29 > 100 µM | M14 > 100 µM | MCF7 > 100 µM | MDA-MB-435 > 100 µM | NCI-H23 > 100 µM | OVCAR-4 > 100 µM | RPMI-8226 > 100 µM | SK-OV-3 > 100 µM | U-251 > 100 µM | UACC-257 > 100 µM

CN(C)/C=N\c1c(Br)cc(Br)c2nonc12
inactive: DU-145 > 100 µM | EKVX > 100 µM | HCT-116 > 100 µM | HL-60 > 100 µM | HOP-62 > 100 µM | HT-29 > 100 µM | M14 > 100 µM | MCF7 > 100 µM | MDA-MB-435 > 100 µM | NCI-H23 > 100 µM | OVCAR-3 > 100 µM | OVCAR-4 > 100 µM | RPMI-8226 > 100 µM | SK-OV-3 > 100 µM | UACC-257 > 100 µM | UO-31 > 100 µM

C1CCC(CC2CCC(NC3=NCCO3)CC2)CC1 (stereo unspecified)
inactive: DU-145 30 µM | EKVX 22.1 µM | HCT-116 15.5 µM | HL-60 17.9 µM | HOP-62 20.6 µM | HT-29 3.93 µM | M14 18.9 µM | MCF7 17.5 µM | MDA-MB-435 17.4 µM | NCI-H23 17.9 µM | OVCAR-3 15.4 µM | OVCAR-4 20.2 µM | RPMI-8226 26.1 µM | SK-OV-3 20.9 µM | U-251 18 µM | UACC-257 16.4 µM | UO-31 19.9 µM
